Experimental data as given in the SangsterLogP compilation.

test: method code SF-TN, from DOI: 10.1007/bf00773207

Compound | logP
O=C(O)c1ccccc1Nc1ccc(Cl)cc1 | 4.24
O=C(O)c1ccc(Cl)cc1Nc1cccc(Cl)c1 | 5
Cc1ccc(Nc2cc(Cl)ccc2C(=O)O)cc1 | 4.81
Cc1cc(C)cc(Nc2cc(Cl)ccc2C(=O)O)c1 | 5.48
O=C(O)c1ccc(Cl)cc1Nc1cccc([N+](=O)[O-])c1 | 4.05
COc1ccc(Nc2ccccc2C(=O)O)cc1 | 3.68
COc1ccccc1Nc1cc(Cl)ccc1C(=O)O | 4.32
Cc1ccccc1Nc1cc(Cl)ccc1C(=O)O | 4.73
Cc1ccc(Nc2cc(Cl)ccc2C(=O)O)cc1C | 5.43
O=C(O)c1ccc(Cl)cc1Nc1cccc(Br)c1 | 5.16
O=C(O)c1ccc(Cl)cc1Nc1ccc(I)cc1 | 5.37
COc1ccccc1Nc1ccccc1C(=O)O | 3.6
O=C(O)c1ccc(Cl)cc1Nc1ccccc1Cl | 4.67
Cc1ccc(Nc2ccccc2C(=O)O)cc1 | 4.09
O=C(O)c1ccc(Cl)cc1Nc1ccc(Cl)cc1 | 4.97
O=C(O)c1ccc(Cl)cc1Nc1ccccc1 | 4.25
O=C(O)c1ccccc1Nc1ccccc1 | 3.52
O=C(O)c1ccc(Cl)cc1Nc1ccc([N+](=O)[O-])cc1 | 4.04
Cc1ccccc1Nc1ccccc1C(=O)O | 4.01
COc1ccc(Nc2cc(Cl)ccc2C(=O)O)cc1 | 4.41
O=C(O)c1ccccc1Nc1ccccc1Cl | 3.94
